Results from US4139538A, “Oxazolidinones as therapeutic agents” (priority 1975, dated 1979).

Key:
[1] = maximum electric shock test (MES), protection against tonic extensor cramp; assay type: in vivo, mice
[2] = paralysis: loss of the postural and balancing reflexes (lying down); assay type: in vivo, mice; conditions: for ED50: Mus musculus, po, read-out: Paralysis ED50; for effectiveness in relaxing the muscle system compared with known hypnotics and tranquillizers: versus e.g. chlorzoxazone and meprobamate
[3] = prolongation of sodium hexobarbitone narcosis; assay type: in vivo, mice; conditions: for ED (200%): Mus musculus, po, 1 h, mice, sodium hexobarbitone 70 mg/kg i.v., 60 minutes after p.o. administration, extension of the narcosis period to 200%, read-out: Prolongation of narcosis ED200; for effectiveness in prolonging sleep compared with known hypnotics and tranquillizers: versus e.g. chlorzoxazone and meprobamate
in vivo = conditions: mouse, po
[4] = administration of a tablet to a human suffering from motor restlessness, with electroencephalogram; assay type: in vivo; conditions: 50 mg
Protocol: A tablet produced in accordance with Example 75 consisting of 50 mg. of the active compound according to Example 43 and the equivalent amount of the other ingredients was administered to a human suffering from motor restlessness.

[5] = minimum pentetrazole shock test (min PS), protection against clonic cramp; assay type: in vivo, mice; conditions: Mus musculus, po, 1 h, read-out: Anticonvulsive activity Min PS ED50;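 note: albino NMRI mice, oral dosing, clonic seizures provoked 60 min later by subcutaneous pentetrazole 70 mg/kg, ED50 is the dose protecting half of animals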
[6] = Mus musculus, po, 1 h; read-out: Anticonvulsive activity MES ED50
[7] = mice, p.o., lying down in 50% of the animals
[8] = mice, 70 mg/kg pentetrazole s.c., 60 minutes after p.o. administration, protection in 50% of the animals
[9] = MES and min PS test models; versus trimethadione and dipropyl acetate
[10] = Mus musculus, po, 1 h, read-out: Anticonvulsive activity MES ED50

| Compound | ED50 [1, 6] [mg/kg] | ED50 [2, 7] [mg/kg] | effectiveness in relaxing the muscle system compared with known hypnotics and tranquillizers [2] | ED (200%) [3] [mg/kg] | effectiveness in prolonging sleep compared with known hypnotics and tranquillizers [3] | LD50 at 168 h (in vivo) [mg/kg] | electroencephalogram findings [4] | indications of a shallow sleep phase in the electroencephalogram ([4]; 5 hours after administration) | effect reported by the patient ([4]; within a period of several minutes) | ED50 [5, 8] [mg/kg] | anticonvulsive effect compared with conventional antiepileptics [1, 9] | ED50 [1, 10] [mg/kg] | ED50 [2] [mg/kg] | ED50 [5] [mg/kg] |
| --- | --- | --- | --- | --- | --- | --- | --- | --- | --- | --- | --- | --- | --- | --- |
| C=CCC(O)(CC=C)C1NC(=O)OC1c1ccccc1 (stereo not shown) [Example 43] | 25 | 225 | distinctly more effective | 15 | distinctly more effective | 1000 | characteristic signs of a sedation with a decrease of effectiveness in the alpha and beta band and a change of the range of main activity to the lower frequency range | clearly increased | muscle relaxing, tiring and ataraktic sedation | > 464 |  |  |  |  |
| CCC(O)(c1ccccc1)C1COC(=O)N1C (stereo not shown) [Example 64] | 300 | 650 | distinctly more effective | 110 | distinctly more effective | 800 |  |  |  | > 464 |  |  |  |  |
| CCCC(O)(c1ccccc1)C1COC(=O)N1 (stereo not shown) [Example 65] | 170 | > 1000 |  | 155 |  | > 1000 |  |  |  | 175 |  |  |  |  |
| CCC(O)(c1ccccc1)C1COC(=O)N1 (stereo not shown) [Example 54] | 115 | 800 | distinctly more effective | 50 | distinctly more effective | > 1000 |  |  |  | 85 | superior |  |  |  |
| CN1C(=O)OC(c2ccccc2)C1C(C)(C)O (stereo not shown) [Example 38] | 165 | 464 | distinctly more effective | 115 | distinctly more effective | > 1000 |  |  |  | 640 |  |  |  |  |
| O=C1NC(CBr)C(c2ccccc2)O1 (stereo not shown) [Example 73] |  |  |  |  |  | > 1000 |  |  |  |  |  | 65 | > 1000 | 430 |
| CCC1(c2ccccc2)C(=O)NC(=O)NC1=O [Na-phenocarbital, reference compound] |  |  |  |  |  | 320 |  |  |  |  |  | 11 | 150 | 30 |
| CCCC(C)(COC(N)=O)COC(N)=O [Meprobamate, reference compound] |  |  |  |  |  | 1000 |  |  |  |  |  | 115 | 800 | 150 |
| O=C1NC(C(O)(c2ccccc2)c2cccc(Cl)c2)CO1 (stereo not shown) [Example 49] | 200 | > 1000 |  | 90 |  | > 1000 |  |  |  | > 464 |  |  |  |  |
| CC(C)(O)C1NC(=O)OC1c1ccccc1 (stereo not shown) [Example 37] | 59 | 1000 |  | 650 |  | > 1000 |  |  |  | 130 | superior |  |  |  |
| CCCC(O)(CCC)C1COC(=O)N1 (stereo not shown) [Example 45] | 120 | 1000 |  | 210 |  | > 1000 |  |  |  | 430 |  |  |  |  |
| CC1(c2ccccc2)OC(=O)NC1CCl (stereo not shown) [Example 67, 4-Chloromethyl-5-methyl-5-phenyl oxazolidin-2-one] |  |  |  |  |  | > 1000 |  |  |  |  | superior | 93 | 1000 | 55 |
| CCCC(O)(CCC)C1NC(=O)OC1c1ccccc1 (stereo not shown) [Example 41] | 147 | > 1000 |  | 65 |  | > 1000 |  |  |  | > 464 |  |  |  |  |
| CCCC(CCC)C(=O)O [Dipropylacetate, reference compound] |  |  |  |  |  | > 1000 |  |  |  |  |  | 185 | 1000 | 450 |
| CC1(CO)NC(=O)OC1(C)c1ccccc1 (stereo not shown) [Example 6] | 165 | 1000 |  | 1000 |  | > 100 |  |  |  | > 464 |  |  |  |  |
| O=C1NC(C(O)c2ccc(Cl)cc2)CO1 (stereo not drawn) [Example 4, 4-(α-Hydroxy-p-chlorobenzyl)-oxazolidin-2-one] | 125 | > 1000 |  | 160 |  | > 1000 |  |  |  | 140 | superior |  |  |  |
| CC(O)(c1ccc(Cl)cc1)C1COC(=O)N1 (stereo not shown) [Example 59] | 165 | > 1000 |  | 110 |  | > 1000 |  |  |  | > 464 |  |  |  |  |
| C=CCC(O)(CC=C)C1NC(=O)OC1C (stereo not shown) [Example 34] | 150 | 1000 |  | 90 |  | > 1000 |  |  |  | > 464 |  |  |  |  |
| CC(O)C1NC(=O)OC1c1ccccc1 (stereo not shown) [Example 5, 4-[1-(1-Hydroxyethyl)]-5-phenyl oxazolidin-2-one] | 75 | > 1000 |  | 510 |  | > 1000 |  |  |  | 150 | superior |  |  |  |
| C=CCC(O)(c1ccccc1)C1COC(=O)N1 (stereo not shown) [Example 58] | 200 | 1000 |  | 300 |  | > 1000 |  |  |  | 300 |  |  |  |  |
| O=C1NC(=O)C(c2ccccc2)(c2ccccc2)N1 [Diphenylhydantoin, reference compound] | 10 |  |  | 50 |  |  |  |  |  |  |  |  |  |  |
| C=CCN1C(=O)OC(c2ccccc2)C1C(C)(C)O (stereo not shown) [Example 39] | 145 | > 1000 |  | 130 |  | 1000 |  |  |  | > 464 |  |  |  |  |
| CN1C(=O)OC(C)(C)C1=O [Trimethadione, reference compound] | 450 | > 1000 |  | 660 |  | > 1000 |  |  |  | 240 |  |  |  |  |
| O=C1NC(CCl)C(c2ccccc2)O1 (stereo not shown) [Example 72] |  |  |  |  |  | > 1000 |  |  |  |  |  | 75 | > 1000 | 540 |
| CCC(O)(CC)C1NC(=O)OC1c1ccccc1 (stereo not shown) [Example 40] | 75 | 1000 |  | 165 |  | > 1000 |  |  |  | 430 |  |  |  |  |
| CCC(O)(c1ccc(Cl)cc1)C1COC(=O)N1 (stereo not shown) [Example 60] | 175 | 1000 |  | 70 |  | > 1000 |  |  |  | > 464 |  |  |  |  |
| CCC(O)(c1ccccc1)C1NC(=O)OC1C (stereo not shown) [Example 18, 4-[-1-(1-Hydroxy-1-phenyl)-propyl]-5-methyl oxazolidin-2-one] | 200 | > 1000 |  | 450 |  | > 1000 |  |  |  | 200 |  |  |  |  |
